Assay results: patent US10670605B2, “Cysteine reactive probes and uses thereof” (The Scripps Research Institute, priority 2015, dated 2020)
Blank lines part the entries; values can stand above or below the compound they belong to.

What was measured:
[1] = target: cysteines in MDA-MB-231 and Ramos cells (Homo sapiens, UniProt Q15118); assay: Competitive isoTOP-ABPP in situ (fragment-treated cells); assay type: cell-based
[2] = target: cysteines in MDA-MB-231 and Ramos cells (Homo sapiens, UniProt P46109); assay: as above; assay type: cell-based; conditions: 200 μM, insitu
[3] = target: T1, cysteines in MDA-MB-231 and Ramos cells (Homo sapiens, UniProt Q8NFH5); assay: as above; assay type: cell-based
T1 sequence (Q8NFH5 1-326): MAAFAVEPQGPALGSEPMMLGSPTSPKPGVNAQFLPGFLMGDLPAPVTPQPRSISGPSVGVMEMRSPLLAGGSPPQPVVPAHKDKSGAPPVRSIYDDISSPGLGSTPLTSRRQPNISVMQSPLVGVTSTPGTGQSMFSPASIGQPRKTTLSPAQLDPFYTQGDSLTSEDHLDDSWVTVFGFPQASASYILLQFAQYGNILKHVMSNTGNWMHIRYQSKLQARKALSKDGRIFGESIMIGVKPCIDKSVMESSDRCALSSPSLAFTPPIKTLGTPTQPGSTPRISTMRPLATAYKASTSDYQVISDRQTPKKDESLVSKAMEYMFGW

[4] = target: T2, cysteines in MDA-MB-231 and Ramos cells (Homo sapiens, UniProt Q15398); assay: as above; assay type: cell-based
T2 sequence (Q15398 1-846): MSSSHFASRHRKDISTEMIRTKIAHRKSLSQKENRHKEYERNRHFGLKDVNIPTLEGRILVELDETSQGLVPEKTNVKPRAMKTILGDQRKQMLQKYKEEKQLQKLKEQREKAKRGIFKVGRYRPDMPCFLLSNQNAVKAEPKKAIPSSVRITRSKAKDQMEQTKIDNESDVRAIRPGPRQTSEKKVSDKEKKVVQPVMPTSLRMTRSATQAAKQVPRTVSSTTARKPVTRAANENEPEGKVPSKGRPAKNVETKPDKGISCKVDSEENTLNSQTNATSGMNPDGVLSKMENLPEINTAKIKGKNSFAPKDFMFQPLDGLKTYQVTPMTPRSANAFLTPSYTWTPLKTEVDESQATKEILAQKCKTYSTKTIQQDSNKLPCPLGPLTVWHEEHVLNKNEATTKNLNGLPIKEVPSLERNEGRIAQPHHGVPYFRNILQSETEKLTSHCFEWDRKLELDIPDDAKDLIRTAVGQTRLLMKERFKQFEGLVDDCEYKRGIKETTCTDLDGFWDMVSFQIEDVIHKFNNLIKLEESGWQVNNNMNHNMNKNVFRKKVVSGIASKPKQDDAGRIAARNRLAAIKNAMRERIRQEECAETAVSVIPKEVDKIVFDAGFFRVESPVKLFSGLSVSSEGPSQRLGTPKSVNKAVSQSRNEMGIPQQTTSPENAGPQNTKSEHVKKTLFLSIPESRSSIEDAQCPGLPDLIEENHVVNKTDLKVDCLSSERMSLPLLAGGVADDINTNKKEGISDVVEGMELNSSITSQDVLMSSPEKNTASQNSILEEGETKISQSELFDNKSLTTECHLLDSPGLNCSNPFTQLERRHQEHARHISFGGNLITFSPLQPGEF

[5] = target: cysteines in MDA-MB-231 and Ramos cells (Homo sapiens, UniProt O75362); assay: as above; assay type: cell-based
[6] = target: cysteines in MDA-MB-231 and Ramos cells (Homo sapiens, UniProt P48643); assay: as above; assay type: cell-based
[7] = target: PES1 C272 (O00541) (Homo sapiens, UniProt O00541); assay: Competitive isoTOP-ABPP, cell lysates; assay type: binding; conditions: 500 μM, invitro
[8] = target: T3, cysteines in MDA-MB-231 and Ramos cells (Homo sapiens, UniProt Q9NY27); assay: Competitive isoTOP-ABPP in situ (fragment-treated cells); assay type: cell-based
T3 sequence (Q9NY27 1-417): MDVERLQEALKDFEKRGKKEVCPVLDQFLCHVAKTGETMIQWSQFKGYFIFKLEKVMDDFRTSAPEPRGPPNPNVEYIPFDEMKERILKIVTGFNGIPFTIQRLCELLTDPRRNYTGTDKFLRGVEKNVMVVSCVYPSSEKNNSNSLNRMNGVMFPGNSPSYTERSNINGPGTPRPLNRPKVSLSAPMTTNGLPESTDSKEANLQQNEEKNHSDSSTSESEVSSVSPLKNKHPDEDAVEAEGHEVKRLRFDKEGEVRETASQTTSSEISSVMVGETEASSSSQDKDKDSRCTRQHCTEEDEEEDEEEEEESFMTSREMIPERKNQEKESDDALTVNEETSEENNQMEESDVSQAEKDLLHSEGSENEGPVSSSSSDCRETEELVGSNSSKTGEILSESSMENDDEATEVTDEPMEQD

[9] = target: O14933 C98 (Homo sapiens, UniProt O14933); assay: Competitive isoTOP-ABPP, cell lysates; assay type: binding; conditions: 500 μM, invitro, ramos
Chain of O14933 C98 (O14933 whole entry): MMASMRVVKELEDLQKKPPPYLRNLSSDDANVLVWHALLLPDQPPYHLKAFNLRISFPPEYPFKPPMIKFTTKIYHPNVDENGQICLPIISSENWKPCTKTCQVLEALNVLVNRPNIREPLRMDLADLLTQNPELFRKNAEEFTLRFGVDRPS

Chain of cysteines in MDA-MB-231 and Ramos cells (Homo sapiens, UniProt P48643) (P48643 whole entry): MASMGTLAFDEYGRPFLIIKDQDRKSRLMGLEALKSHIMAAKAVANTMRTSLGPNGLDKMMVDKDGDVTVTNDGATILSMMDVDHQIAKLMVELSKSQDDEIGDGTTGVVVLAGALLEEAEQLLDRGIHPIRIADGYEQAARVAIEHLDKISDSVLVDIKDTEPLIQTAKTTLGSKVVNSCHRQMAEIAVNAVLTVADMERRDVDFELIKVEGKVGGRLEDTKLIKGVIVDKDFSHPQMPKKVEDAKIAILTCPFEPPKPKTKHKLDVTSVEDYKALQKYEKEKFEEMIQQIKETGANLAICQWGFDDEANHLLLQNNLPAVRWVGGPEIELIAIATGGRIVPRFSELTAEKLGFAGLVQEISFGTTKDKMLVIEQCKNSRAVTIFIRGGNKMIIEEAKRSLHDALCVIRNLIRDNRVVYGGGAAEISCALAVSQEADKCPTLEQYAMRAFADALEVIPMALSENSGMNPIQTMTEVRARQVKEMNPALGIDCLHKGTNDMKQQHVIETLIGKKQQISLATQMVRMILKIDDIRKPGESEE
Chain of cysteines in MDA-MB-231 and Ramos cells (Homo sapiens, UniProt P46109) (P46109 whole entry): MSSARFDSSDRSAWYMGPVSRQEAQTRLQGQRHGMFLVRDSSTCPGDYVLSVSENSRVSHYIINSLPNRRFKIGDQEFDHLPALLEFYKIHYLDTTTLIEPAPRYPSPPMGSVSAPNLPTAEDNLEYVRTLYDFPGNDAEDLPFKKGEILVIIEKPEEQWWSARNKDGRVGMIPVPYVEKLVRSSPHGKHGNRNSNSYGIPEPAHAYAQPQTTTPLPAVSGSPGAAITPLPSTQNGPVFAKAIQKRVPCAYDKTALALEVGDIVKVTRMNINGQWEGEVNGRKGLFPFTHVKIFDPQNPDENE
Chain of PES1 C272 (O00541) (O00541 whole entry, looked up, the tested form may be a part): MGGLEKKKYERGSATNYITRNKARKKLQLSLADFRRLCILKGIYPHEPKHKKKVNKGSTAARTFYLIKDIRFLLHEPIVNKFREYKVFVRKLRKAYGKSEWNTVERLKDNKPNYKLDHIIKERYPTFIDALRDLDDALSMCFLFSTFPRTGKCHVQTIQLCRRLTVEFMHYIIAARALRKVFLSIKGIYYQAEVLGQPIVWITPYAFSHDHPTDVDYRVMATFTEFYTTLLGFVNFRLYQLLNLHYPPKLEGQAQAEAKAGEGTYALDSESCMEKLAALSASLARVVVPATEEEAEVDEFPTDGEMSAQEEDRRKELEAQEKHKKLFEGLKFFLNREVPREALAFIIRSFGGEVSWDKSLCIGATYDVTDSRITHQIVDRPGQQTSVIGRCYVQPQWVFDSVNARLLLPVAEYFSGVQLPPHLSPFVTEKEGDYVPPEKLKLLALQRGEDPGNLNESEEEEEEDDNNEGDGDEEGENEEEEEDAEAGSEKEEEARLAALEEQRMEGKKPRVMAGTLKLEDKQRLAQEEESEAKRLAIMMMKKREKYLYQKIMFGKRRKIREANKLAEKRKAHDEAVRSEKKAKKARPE
Chain of cysteines in MDA-MB-231 and Ramos cells (Homo sapiens, UniProt O75362) (O75362 whole entry): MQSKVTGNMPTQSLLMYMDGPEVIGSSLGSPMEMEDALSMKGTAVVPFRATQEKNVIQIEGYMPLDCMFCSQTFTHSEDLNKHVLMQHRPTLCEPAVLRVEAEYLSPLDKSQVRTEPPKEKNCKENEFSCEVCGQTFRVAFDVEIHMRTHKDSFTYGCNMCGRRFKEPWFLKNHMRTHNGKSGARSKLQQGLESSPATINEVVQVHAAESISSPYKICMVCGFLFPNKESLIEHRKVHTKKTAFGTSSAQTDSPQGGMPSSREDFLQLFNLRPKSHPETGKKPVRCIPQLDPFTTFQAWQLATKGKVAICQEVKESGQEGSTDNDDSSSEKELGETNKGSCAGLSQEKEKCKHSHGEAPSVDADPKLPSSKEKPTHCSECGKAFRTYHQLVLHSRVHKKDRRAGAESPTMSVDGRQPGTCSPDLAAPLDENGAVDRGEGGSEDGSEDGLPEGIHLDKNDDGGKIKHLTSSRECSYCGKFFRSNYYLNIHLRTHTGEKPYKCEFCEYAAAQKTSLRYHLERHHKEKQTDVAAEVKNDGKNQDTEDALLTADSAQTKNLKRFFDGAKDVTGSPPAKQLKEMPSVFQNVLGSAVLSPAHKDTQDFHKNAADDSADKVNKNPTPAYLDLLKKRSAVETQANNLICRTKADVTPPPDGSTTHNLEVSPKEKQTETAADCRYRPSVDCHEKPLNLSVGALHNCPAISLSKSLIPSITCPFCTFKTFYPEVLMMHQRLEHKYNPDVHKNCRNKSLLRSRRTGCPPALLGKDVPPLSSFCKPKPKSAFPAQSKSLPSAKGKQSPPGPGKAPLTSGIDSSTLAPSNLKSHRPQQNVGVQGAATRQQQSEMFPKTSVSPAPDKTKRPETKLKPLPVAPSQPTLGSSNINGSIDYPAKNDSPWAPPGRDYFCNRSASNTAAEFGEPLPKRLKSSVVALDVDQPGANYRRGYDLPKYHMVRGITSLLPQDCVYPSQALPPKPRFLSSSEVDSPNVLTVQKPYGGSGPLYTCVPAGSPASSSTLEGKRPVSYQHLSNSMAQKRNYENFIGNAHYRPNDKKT
Chain of cysteines in MDA-MB-231 and Ramos cells (Homo sapiens, UniProt Q15118) (Q15118 29-436): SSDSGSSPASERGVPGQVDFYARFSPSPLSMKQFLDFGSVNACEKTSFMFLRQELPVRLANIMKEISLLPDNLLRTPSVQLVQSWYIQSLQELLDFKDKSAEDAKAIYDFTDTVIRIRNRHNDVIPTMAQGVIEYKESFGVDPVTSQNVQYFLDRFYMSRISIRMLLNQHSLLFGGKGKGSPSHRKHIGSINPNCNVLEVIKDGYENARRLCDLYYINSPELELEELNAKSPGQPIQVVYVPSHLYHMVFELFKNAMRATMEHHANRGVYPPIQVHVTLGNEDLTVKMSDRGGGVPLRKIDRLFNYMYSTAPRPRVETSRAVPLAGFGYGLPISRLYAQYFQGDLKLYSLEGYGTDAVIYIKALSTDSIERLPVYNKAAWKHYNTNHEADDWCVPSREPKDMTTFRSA

isoTOP-ABPP reactivity Q15118_C71 PDK1 ([1]; 200 μM, insitu, 231): 20.0 | isoTOP-ABPP reactivity P46109_0249 CRKL [2]; 231: 20.0 | isoTOP-ABPP reactivity Q8NFH5_C255 NUP35 ([3]; 200 μM, insitu, 231): 5.1 | isoTOP-ABPP reactivity Q15398_C129 DLGAP5 ([4]; 200 μM, insitu, 231): 20.0 | isoTOP-ABPP reactivity O75362_C286 ZNF217 ([5]; 200 μM, insitu, 231): 8.9
Structure (SMILES): COc1ccc2c(c1)CCCN2C(=O)CCl [compound 2]

isoTOP-ABPP reactivity Q15118_C71 PDK1 ([1]; 100 μM in situ 231): 20.0 | isoTOP-ABPP reactivity Q8NFH5_C255 NUP35 ([3]; 100 μM in situ 231): 3.9 | isoTOP-ABPP reactivity P48643_C253 CCT5 ([6]; 100 μM in situ 231): 0.8
Structure (SMILES): COc1ccc(C2CC(c3cccs3)=NN2C(=O)CCl)cc1 (stereo not shown) [compound 4]

isoTOP-ABPP ratio, O00541_C272 ([7]; ramos): 12.3
Structure (SMILES): C=CC(=O)N(c1ccccc1)c1ccc(Br)cc1 [compound 5]

isoTOP-ABPP reactivity Q15118_C71 PDK1 ([1]; 200 μM, insitu, 231): 20.0 | isoTOP-ABPP reactivity P48643_C253 CCT5 ([6]; 200 μM, insitu, 231): 0.8
Structure (SMILES): COc1cc2c(cc1OC)CN(C(=O)CCl)CC2 [compound 8]

isoTOP-ABPP reactivity P46109_0249 CRKL [2]; 231: 6.7
Structure (SMILES): O=C(CCl)N1CCC(Cc2ccccc2)CC1 [compound 9]

isoTOP-ABPP ratio Q15118_C71 ([1]; 200 μM, insitu, 231): 18.0 | isoTOP-ABPP ratio Q15118_C71 ([1]; 200 μM, insitu, ramos): 2.7 | isoTOP-ABPP ratio P46109_C249 [2]; 231: 20.0 | isoTOP-ABPP ratio Q9NY27_C22 ([8]; 200 μM, insitu, ramos): 2.1 | isoTOP-ABPP ratio Q8NFH5_C255 ([3]; 200 μM, insitu, 231): 3.5 | isoTOP-ABPP ratio P48643_C253 ([6]; 200 μM, insitu, ramos): 0.9 | isoTOP-ABPP ratio O75362_C286 ([5]; 200 μM, insitu, 231): 2.6 | isoTOP-ABPP ratio, O00541_C272 ([7]; ramos): 2.2
Structure (SMILES): O=C(CCl)N1CCN(S(=O)(=O)c2ccccc2F)CC1 [compound 10]

isoTOP-ABPP ratio O14933_C98 [9]: 3.4 | isoTOP-ABPP ratio Q15118_C71 ([1]; 100 μM in situ 231): 0.6 | isoTOP-ABPP ratio Q9NY27_C22 ([8]; 100 μM in situ 231): 2.3 | isoTOP-ABPP ratio Q8NFH5_C255 ([3]; 100 μM in situ 231): 1.3 | isoTOP-ABPP ratio P48643_C253 ([6]; 100 μM in situ 231): 0.6 | isoTOP-ABPP ratio, cysteine Q15398_C129 ([4]; 100 μM in situ 231): 0.6 | isoTOP-ABPP ratio O75362_C286 ([5]; 100 μM in situ 231): 1.0 | isoTOP-ABPP ratio, O00541_C272 ([7]; ramos): 4.2
Structure (SMILES): Cn1cc(S(=O)(=O)N2CCOCC2)cc1C(=O)NC(=O)CCl [compound 11]

isoTOP-ABPP ratio O14933_C98 [9]: 1.3 | isoTOP-ABPP ratio P46109_C249 [2]; 231: 20.0 | isoTOP-ABPP ratio Q9NY27_C22 ([8]; 200 μM, insitu, 231): 20.0 | isoTOP-ABPP ratio Q8NFH5_C255 ([3]; 200 μM, insitu, 231): 12.4 | isoTOP-ABPP ratio P48643_C253 ([6]; 200 μM, insitu, 231): 5.1 | isoTOP-ABPP ratio O75362_C286 ([5]; 200 μM, insitu, 231): 20.0
Structure (SMILES): O=C(CCl)NC(=O)NC12CC3CC(CC(C3)C1)C2 [compound 12]

isoTOP-ABPP ratio O14933_C98 [9]: 1.0 | isoTOP-ABPP ratio Q15118_C71 ([1]; 200 μM, insitu, 231): 1.6 | isoTOP-ABPP ratio P46109_C249 ([2]; ramos): 1.8 | isoTOP-ABPP ratio Q9NY27_C22 ([8]; 200 μM, insitu, ramos): 1.5 | isoTOP-ABPP ratio Q8NFH5_C255 ([3]; 200 μM, insitu, 231): 1.5 | isoTOP-ABPP ratio O75362_C286 ([5]; 200 μM, insitu, 231): 1.1 | isoTOP-ABPP ratio O75362_C286 ([5]; 200 μM, insitu, ramos): 20.0 | isoTOP-ABPP ratio, O00541_C272 [7]; 231: 1.7
Structure (SMILES): O=C(CCl)NCCc1c[nH]c2ccccc12 [compound 13]

isoTOP-ABPP ratio Q15118_C71 ([1]; 200 μM, insitu, 231): 1.7 | isoTOP-ABPP ratio P46109_C249 [2]; 231: 0.9 | isoTOP-ABPP ratio Q8NFH5_C255 ([3]; 200 μM, insitu, 231): 1.8 | isoTOP-ABPP ratio O75362_C286 ([5]; 200 μM, insitu, 231): 1.1
Structure (SMILES): O=C(CCl)NC12CC3CC(CC(C3)C1)C2 [compound 21]

isoTOP-ABPP ratio Q15118_C71 ([1]; 200 μM, insitu, 231): 1.5 | isoTOP-ABPP ratio Q15398_C129 ([4]; 200 μM, insitu, 231): 0.5 | isoTOP-ABPP ratio O75362_C286 ([5]; 200 μM, insitu, 231): 1.0
Structure (SMILES): CC(C)CCOCCNC(=O)CCl [compound 27]

isoTOP-ABPP ratio P48643_C253 ([6]; 200 μM, insitu, 231): 0.8 | isoTOP-ABPP ratio O75362_C286 ([5]; 200 μM, insitu, 231): 0.9
Structure (SMILES): COc1ccccc1OCCNC(=O)CCl [compound 28]

isoTOP-ABPP ratio Q15118_C71 ([1]; 200 μM, insitu, ramos): 1.8 | isoTOP-ABPP ratio P46109_C249 ([2]; ramos): 4.2 | isoTOP-ABPP ratio Q9NY27_C22 ([8]; 200 μM, insitu, ramos): 1.7 | isoTOP-ABPP ratio Q8NFH5_C255 ([3]; 200 μM, insitu, ramos): 1.6 | isoTOP-ABPP ratio Q15398_C129 ([4]; 200 μM, insitu, ramos): 1.2 | isoTOP-ABPP ratio O75362_C286 ([5]; 200 μM, insitu, ramos): 1.0
Structure (SMILES): O=C(CCl)N1CCN(CC(=O)N2CCOCC2)CC1 [compound 29]

isoTOP-ABPP ratio P48643_C253 ([6]; 200 μM, insitu, 231): 0.5 | isoTOP-ABPP ratio P48643_C253 ([6]; 200 μM, insitu, ramos): 1.0 | isoTOP-ABPP ratio Q15398_C129 ([4]; 200 μM, insitu, ramos): 2.4
Structure (SMILES): C=CC(=O)N(Cc1cccnc1)c1cc(C(F)(F)F)cc(C(F)(F)F)c1 [compound 31]

isoTOP-ABPP ratio Q15118_C71 ([1]; 200 μM, insitu, 231): 1.3 | isoTOP-ABPP ratio P46109_C249 [2]; 231: 1.6 | isoTOP-ABPP ratio Q9NY27_C22 ([8]; 200 μM, insitu, 231): 1.0 | isoTOP-ABPP ratio Q8NFH5_C255 ([3]; 200 μM, insitu, 231): 1.1 | isoTOP-ABPP ratio P48643_C253 ([6]; 200 μM, insitu, 231): 1.1 | isoTOP-ABPP ratio Q15398_C129 ([4]; 200 μM, insitu, 231): 1.4
Structure (SMILES): C=CC(=O)Nc1cc(F)c(N2CCN(C(=O)OC(C)(C)C)CC2)c(F)c1 [compound 38]

isoTOP-ABPP ratio Q9NY27_C22 ([8]; 200 μM, insitu, 231): 0.8 | isoTOP-ABPP ratio Q8NFH5_C255 ([3]; 200 μM, insitu, 231): 0.8 | isoTOP-ABPP ratio P48643_C253 ([6]; 200 μM, insitu, 231): 0.8 | isoTOP-ABPP ratio O75362_C286 ([5]; 200 μM, insitu, 231): 1.0
Structure (SMILES): Cc1ccc(C=C(C#N)C(=O)NCCN2CCOCC2)cc1 [compound 41]

isoTOP-ABPP ratio Q15118_C71 ([1]; 200 μM, insitu, 231): 20.0 | isoTOP-ABPP ratio P46109_C249 [2]; 231: 20.0 | isoTOP-ABPP ratio Q9NY27_C22 ([8]; 200 μM, insitu, 231): 20.0 | isoTOP-ABPP ratio Q8NFH5_C255 ([3]; 200 μM, insitu, 231): 5.5 | isoTOP-ABPP ratio P48643_C253 ([6]; 200 μM, insitu, 231): 1.2 | isoTOP-ABPP ratio O75362_C286 ([5]; 200 μM, insitu, 231): 20.0
Structure (SMILES): CC1CCc2ccccc2N1C(=O)CCl (stereo not shown) [compound 45]

isoTOP-ABPP ratio Q9NY27_C22 ([8]; 200 μM, insitu, 231): 2.2 | isoTOP-ABPP ratio P48643_C253 ([6]; 200 μM, insitu, 231): 0.8 | isoTOP-ABPP ratio Q15398_C129 ([4]; 200 μM, insitu, 231): 7.4
Structure (SMILES): O=C(CCl)Nc1cccc2ncccc12 [compound 51]
